# Results: paper PMC11974249 (Drug metabolism and pharmacokinetics, 2024)
# Columns and labels:
# [1] = tested on: arecoline hydrolase activity in HLC; experiment: Reaction phenotyping with esterase inhibitors in HLC; type: biochemical, human; settings: HLC 0.2 mg/ml, arecoline 25 μM, 15 min; inhibitor concentrations as in HLM
# [2] = tested on: arecoline hydrolase activity in HLM; experiment: Reaction phenotyping with esterase inhibitors in HLM; type: biochemical, human; settings: HLM 0.2 mg/ml, arecoline 25 μM, 15 min; loperamide 1 μM, digitonin 20 μM, ethanol 41 mM, BNPP 10 μM, BW284c51 25 μM, ethopropazine 1 μM, vinblastine 10 μM
# [3] = Enzyme kinetics of hydrolysis; type: in vitro ADME, human; settings: for EH: hepatic extraction ratio; for ClH: well-stirred model, Q 21 ml/min/kg; for Km at 15 min / CLint scaled / microsomal CLint: both, human, pH 7.4; for Km at 15 min: human liver microsomes (pooled); for CLint scaled / microsomal CLint: human liver microsomes
# [4] = Depletion of parent compound over 90 min in fresh or thermally-inactivated HLM; type: in vitro ADME, human; settings: for parent level remaining: at 90 min
# [5] = Enzyme kinetics of hydrolysis; type: in vitro ADME, human; settings: for Vmax: HLC 0.2 mg/ml, 15 min, 37 °C, rate of carboxylate metabolite formation; for Km at 15 min / CLint scaled / microsomal CLint: both, human, pH 7.4; for Km at 15 min: human liver cytosol (pooled); for CLint scaled / microsomal CLint: human liver cytosol
# [6] = Fraction unbound to plasma proteins by ultrafiltration; type: in vitro ADME; settings: plasma protein in sodium phosphate buffer, pH 7.4
# [7] = Depletion of parent compound over 90 min in fresh or thermally-inactivated HLC; type: in vitro ADME, human
# [8] = subjects with Alzheimer's disease treated with arecoline; cited from earlier work
# [9] = Arecoline hydrolysis in human intestinal microsomes and cytosol; type: in vitro ADME
# plasma proteins = experiment: Fraction unbound to plasma proteins by ultrafiltration; type: in vitro ADME; settings: from fu.p
# human recombinant CES2 = target: T1, human recombinant CES2 (Homo sapiens, UniProt O00748); experiment: Arecoline hydrolysis by human recombinant CES2; type: in vitro ADME; settings: 5–40 min, CES protein 0.1–0.4 mg/ml
# T1 sequence (O00748 27-559): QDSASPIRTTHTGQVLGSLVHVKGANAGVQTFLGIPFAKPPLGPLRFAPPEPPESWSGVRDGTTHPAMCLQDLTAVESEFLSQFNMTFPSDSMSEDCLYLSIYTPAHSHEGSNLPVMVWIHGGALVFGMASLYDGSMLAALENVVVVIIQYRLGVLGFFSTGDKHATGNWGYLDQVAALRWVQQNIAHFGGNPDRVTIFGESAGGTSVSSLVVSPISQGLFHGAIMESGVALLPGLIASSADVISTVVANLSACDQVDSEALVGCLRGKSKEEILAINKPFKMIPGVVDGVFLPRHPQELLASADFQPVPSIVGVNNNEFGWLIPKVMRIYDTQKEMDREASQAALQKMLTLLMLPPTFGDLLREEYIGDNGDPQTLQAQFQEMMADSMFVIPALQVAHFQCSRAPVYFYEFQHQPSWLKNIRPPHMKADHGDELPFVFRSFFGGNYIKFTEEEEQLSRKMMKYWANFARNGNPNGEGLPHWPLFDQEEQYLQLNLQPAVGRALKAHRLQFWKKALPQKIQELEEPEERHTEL
# human recombinant CES1 = target: T2, human recombinant CES1 (Homo sapiens, UniProt P23141); experiment: Arecoline hydrolysis by human recombinant CES1; type: in vitro ADME; settings: 5–40 min, CES protein 0.1–0.4 mg/ml
# T2 sequence (P23141 18-567): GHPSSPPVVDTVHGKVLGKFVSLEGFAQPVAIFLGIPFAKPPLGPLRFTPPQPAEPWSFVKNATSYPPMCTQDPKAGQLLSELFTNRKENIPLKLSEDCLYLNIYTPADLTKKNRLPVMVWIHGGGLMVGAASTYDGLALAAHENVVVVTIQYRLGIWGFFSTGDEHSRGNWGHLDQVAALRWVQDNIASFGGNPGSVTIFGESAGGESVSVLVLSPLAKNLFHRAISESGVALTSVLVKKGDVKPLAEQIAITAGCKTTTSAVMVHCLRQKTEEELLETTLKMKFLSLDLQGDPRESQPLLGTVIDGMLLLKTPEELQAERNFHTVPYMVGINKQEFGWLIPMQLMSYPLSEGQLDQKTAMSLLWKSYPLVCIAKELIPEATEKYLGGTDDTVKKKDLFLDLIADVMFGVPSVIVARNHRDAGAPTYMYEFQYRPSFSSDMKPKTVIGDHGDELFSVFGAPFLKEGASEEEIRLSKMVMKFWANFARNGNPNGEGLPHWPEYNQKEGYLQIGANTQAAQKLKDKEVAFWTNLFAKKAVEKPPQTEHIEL
# [10] = mouse liver homogenate, cited from earlier work
# [11] = both, human, human liver microsomes, pH 7.4
# [12] = both, human, human liver cytosol, pH 7.4
structure (smiles),measurement,setting,value
C[C@@H]1CC[C@@]2(OC1)O[C@H]1[C@@H](O)[C@H]3[C@@H]4CC[C@H]5C[C@@H](O[C@@H]6O[C@H](CO)[C@H](O[C@@H]7O[C@H](CO)[C@@H](O)[C@H](O[C@@H]8OC[C@@H](O)[C@H](O)[C@H]8O)[C@H]7O[C@@H]7O[C@H](CO)[C@H](O)[C@H](O[C@@H]8O[C@H](CO)[C@@H](O)[C@H](O)[C@H]8O)[C@H]7O)[C@H](O)[C@H]6O)[C@H](O)C[C@]5(C)[C@H]4CC[C@]3(C)[C@H]1[C@@H]2C [digitonin],change in mean percent activity of arecoline hydrolase compared to control,[1],significant reductions
same,percent activity of arecaidine formation compared to control,[2],70%
"C=CC[N+](C)(C)c1ccc(CCC(=O)CCc2ccc([N+](C)(C)CC=C)cc2)cc1.[Br-].[Br-] [BW284c51, 1,5-Bis(4-allyldimethylammoniumphenyl)pentan-3-one dibromide]",change in mean percent activity of arecoline hydrolase compared to control,[1],no significant change
same,percent activity of arecaidine formation compared to control,[2],103%
CCN(CC)C(C)CN1c2ccccc2Sc2ccccc21 (centres unmarked) [ethopropazine],change in mean percent activity of arecoline hydrolase compared to control,[1],no significant change
same,percent activity of arecaidine formation compared to control,[2],102%
COC(=O)C1=CCCNC1 [guvacoline],ClH less compared to arecoline,[3]; HLM,96%
same,Clint.invivo less compared to arecoline,[3]; HLM,99%
same,EH less compared to arecoline,[3]; HLM,96%
same,Vmax less compared to arecoline,[3]; HLM,96%
same,Vmax,"[3]; HLM 0.2 mg/ml, 15 min, 37 °C, rate of carboxylate metabolite formation",35 nmol/min/mg protein
same,EH,[3]; HLM,0.0306
same,ClH,[3]; HLM,0.643 mL/min/kg
same,Km at 15 min,[3],34.3 mM
same,CLint scaled,[3],0.654 mL/min/kg
same,microsomal CLint,[3],1.02 µL/min/mg
same,depletion over time,"[4]; HLM, all concentrations (0.01, 0.1, 1.0 mM), 90 min",only minimal depletion
same,parent level remaining,[4]; HLM,98 % control
same,Vmax,[5],14.4 nmol/min/mg protein
same,Km at 15 min,[5],27.8 mM
same,CLint scaled,[5],0.466 mL/min/kg
same,microsomal CLint,[5],0.518 µL/min/mg
same,fraction unbound at 15 min,[6],0.998
same,depletion over time,"[7]; HLC, all tested concentrations, data not shown",only minimal depletion
CCO [ethanol],change in mean percent activity of arecoline hydrolase compared to control,[1],significant reductions
same,percent activity of arecaidine formation compared to control,[2],44.6%
COC(=O)C1=CCCN(C)C1 [arecoline],average elimination T1/2 in plasma,[8],10.5 min
same,EH,[3]; HLM,0.733
same,ClH,[3]; HLM,15.4 mL/min/kg
same,Km at 15 min,[3],8.68 mM
same,CLint scaled,[3],57.8 mL/min/kg
same,microsomal CLint,[3],90.3 µL/min/mg
same,extraction ratio class,[3]; from EH in HLM,high (> 0.7)
same,parent level remaining,[4]; HLM,5.6 % control
same,half-life at 10 μM,[4]; [11],15.7 min
same,half-life at 100 μM,[4]; [11],16.6 min
same,half-life at 1000 μM,[4]; [11],17.2 min
same,arecoline hydrolysis in intestinal sub-cellular fractions,[9],no arecoline hydrolysis
same,Vmax,[5],118 nmol/min/mg protein
same,Km at 15 min,[5],9.11 mM
same,CLint scaled,[5],11.6 mL/min/kg
same,microsomal CLint,[5],12.9 µL/min/mg
same,fraction unbound at 15 min,[6],0.978
same,amount available for distribution to peripheral tissues,plasma proteins,~ 98%
same,amount predicted to bind plasma proteins,plasma proteins,~ 2%
same,arecoline concentration remaining in HLC samples compared to HLM samples,"[7]; at 90 min, initial arecoline 10 μM",approximately 12.8 fold
same,half-life at 10 μM,[7]; [12],97 min
same,half-life at 100 μM,[7]; [12],99.8 min
same,half-life at 1000 μM,[7]; [12],126 min
same,hydrolysis by CES2,human recombinant CES2,no hydrolysis
same,hydrolysis by CES1,human recombinant CES1,sub-stantial hydrolysis
same,depletion,[10]; 30 min incubation,~100%
same,maximum rate of arecoline depletion,[10],4.7 nmol/min/mg protein
CC[C@]1(O)C[C@@H]2CN(CCc3c([nH]c4ccccc34)[C@@](C(=O)OC)(c3cc4c(cc3OC)N(C)[C@H]3[C@@](O)(C(=O)OC)[C@H](OC(C)=O)[C@]5(CC)C=CCN6CC[C@]43[C@@H]65)C2)C1 [vinblastine],change in mean percent activity of arecoline hydrolase compared to control,[1],no significant change
same,percent activity of arecaidine formation compared to control,[2],100%
"O=[N+]([O-])c1ccc(OP(=O)(O)Oc2ccc([N+](=O)[O-])cc2)cc1 [BNPP, bis(4-nitrophenyl)-phosphate]",change in mean percent activity of arecoline hydrolase compared to control,[1],significant reductions
same,percent activity of arecaidine formation compared to control,[2],14.4%
CN(C)C(=O)C(CCN1CCC(O)(c2ccc(Cl)cc2)CC1)(c1ccccc1)c1ccccc1 [loperamide],change in mean percent activity of arecoline hydrolase compared to control,[1],no significant change
same,percent activity of arecaidine formation compared to control,[2],100.2%
